The compounds below were run against T1, STING (Homo sapiens, UniProt Q86WV6, G230A/H232R/R293Q/R71H) (assay: STING reporter assay (luciferase) in THP1-Dual KO-IFNAR2 cells stimulated with 2′3′cGAMP). Settings: 2′3′cGAMP 15 μM final, 24 h, luciferase reporter activity, read-out: Pharmaron, THP1_IFNAR2 STING 24 h Luci Normalized: GeoMean EC50.
T1 construct: host or cells: THP1-Dual KO-IFNAR2 cells
Type: cell-based
Summary of the method: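 THP1-Dual KO-IFNAR2 cells (2×10E6 cells/mL) exposed to compounds at 0.0017-100 μM final and stimulated with 2′3′cGAMP (15 μM final) delivered via Lipofectamine 2000. After 24 h at 37° C., secreted luciferase in supernatant read with QUANTI-Luc Plus; EC50 derived from luminescence.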

T1 sequence (Q86WV6 whole entry R71H/G230A/H232R/R293Q): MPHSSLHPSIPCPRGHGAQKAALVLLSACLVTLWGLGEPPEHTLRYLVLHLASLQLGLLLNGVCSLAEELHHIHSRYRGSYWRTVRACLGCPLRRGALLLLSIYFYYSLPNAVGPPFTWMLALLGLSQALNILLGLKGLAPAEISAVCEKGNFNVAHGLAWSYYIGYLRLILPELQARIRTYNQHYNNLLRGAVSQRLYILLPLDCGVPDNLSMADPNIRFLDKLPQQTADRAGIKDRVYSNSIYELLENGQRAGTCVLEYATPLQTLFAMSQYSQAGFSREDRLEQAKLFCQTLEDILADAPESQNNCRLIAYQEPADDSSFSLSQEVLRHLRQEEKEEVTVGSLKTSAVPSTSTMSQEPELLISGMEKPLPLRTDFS

Q: How did the EC50 turn out when `Cn1cc(C(=O)Nc2c[nH]c3ccc(O[C@H]4C[C@H](c5ccc(C(F)(F)F)nc5)C4)cc23)nn1` [Compound 219, 1-methyl-N-(5-(trans-3-(6-(trifluoromethyl)pyridin-3-yl)cyclobutoxy)-1H-indol-3-yl)-1H-1,2,3-triazole-4-carboxamide] was run?
A: The EC50 was 0.2 to 1 µM.

Q: How did the EC50 turn out when `Cn1ccnc1C(=O)Nc1c[nH]c2ccc(O[C@H]3C[C@H](c4ccc(C(F)(F)F)cc4)C3)cc12` [Compound 220, 1-methyl-N-{5-[(1R,3R)-3-[4-(trifluoromethyl)phenyl]cyclobutoxy]-1H-indol-3-yl}-1H-imidazole-2-carboxamide] was run?
A: The EC50 was 0.2 to 1 µM.

Q: Which EC50 does the source give for `O=C(Nc1c[nH]c2ccc(OCc3ccc(C(F)(F)F)cc3)cc12)C1CC2(CC2)C1` [Compound 221, N-(5-{[4-(trifluoromethyl)phenyl]methoxy}-1H-indol-3-yl)spiro[2.3]hexane-5-carboxamide] here?
A: Its EC50 is 0.2 to 1 µM.

Q: For `O=C(Nc1c[nH]c2ccc(OCC[C@@H]3C[C@@H]4CN(CC(F)(F)F)C[C@@H]4C3)cc12)C1CC2(CC2)C1` [Compound 222, N-(5-{2-[(3aR,5R,6aS)-2-(2,2,2-trifluoroethyl)octahydrocyclopenta[c]pyrrol-5-yl]ethoxy}-1H-indol-3-yl)spiro[2.3]hexane-5-carboxamide], which EC50 is on record?
A: Its EC50 is 0.2 to 1 µM.

Q: How did the EC50 turn out when `O=C(Nc1c[nH]c2ccc(OCC[C@@H]3C[C@@H]4CN(CC(F)(F)F)C[C@@H]4C3)cc12)C1CC12CCC2` (stereo partly drawn) [Compound 223, N-(5-(2-((3aR,5R,6aS)-2-(2,2,2-trifluoroethyl)octahydrocyclopenta [c]pyrrol-5-yl)ethoxy)-1H-indol-3-yl)spiro[2.3]hexane-1-carboxamide] was run?
A: Its EC50 is 0.2 to 1 µM.

Q: With `O=C(Nc1c[nH]c2ccc(OCC[C@@H]3C[C@@H]4CN(CC(F)(F)F)C[C@@H]4C3)cc12)c1ccccc1` [Compound 224, N-(5-(2-((3aR,5r,6aS)-2-(2,2,2-trifluoroethyl)octahydrocyclopenta[c]pyrrol-5-yl)ethoxy)-1H-indol-3-yl)benzamide] as the compound, how does the EC50 read?
A: The EC50 was 0.2 to 1 µM.

Q: For `O=C(Nc1c[nH]c2ccc(O[C@H]3C[C@H](c4ccc(C(F)(F)F)cc4)C3)cc12)c1ccncc1` [Compound 225, N-{5-[(1R,3R)-3-[4-(trifluoromethyl)phenyl]cyclobutoxy]-1H-indol-3-yl}pyridine-4-carboxamide], which EC50 is on record?
A: The EC50 was 0.2 to 1 µM.

Q: How did the EC50 turn out when `O=C(Nc1c[nH]c2ccc(O[C@H]3C[C@H](c4ccc(C(F)(F)F)cc4)C3)cc12)c1ccn[nH]1` [Compound 226, N-{5-[(1R,3R)-3-[4-(trifluoromethyl)phenyl]cyclobutoxy]-1H-indol-3-yl}-1H-pyrazole-5-carboxamide] was run?
A: Its EC50 is 0.04 to 0.2 µM.

Q: `O=C(Nc1c[nH]c2ccc(O[C@H]3C[C@H](c4ccc(C(F)(F)F)cc4)C3)cc12)c1cccnc1` [Compound 227, N-{5-[(1R,3R)-3-[4-(trifluoromethyl)phenyl]cyclobutoxy]-1H-indol-3-yl}pyridine-3-carboxamide] was tested. Which EC50 did it give?
A: The EC50 was 0.2 to 1 µM.

Q: `O=C(Nc1c[nH]c2ccc(O[C@H]3C[C@H](c4ccc(C(F)(F)F)cc4)C3)cc12)c1ccccn1` [Compound 228, N-{5-[(1R,3R)-3-[4-(trifluoromethyl)phenyl]cyclobutoxy]-1H-indol-3-yl}pyridine-2-carboxamide] was tested. Which EC50 did it give?
A: The EC50 was 0.2 to 1 µM.

Q: How did the EC50 turn out when `O=C(Nc1c[nH]c2ccc(O[C@H]3C[C@H](c4ccc(C(F)(F)F)cc4)C3)cc12)C1CC2(CC2)C1` [Compound 229, N-{5-[(1R,3R)-3-[4-(trifluoromethyl)phenyl]cyclobutoxy]-1H-indol-3-yl}spiro[2.3]hexane-5-carboxamide] was run?
A: Its EC50 is 0.04 to 0.2 µM.

Q: How did the EC50 turn out when `O=C(Nc1c[nH]c2ccc(O[C@H]3C[C@H](c4ccc(C(F)(F)F)cc4)C3)cc12)C1CC12CCC2` (stereo partly drawn) [Compound 230, N-{5-[(1R,3R)-3-[4-(trifluoromethyl)phenyl]cyclobutoxy]-1H-indol-3-yl}spiro[2.3]hexane-1-carboxamide] was run?
A: The EC50 was 0.04 to 0.2 µM.

Q: How did the EC50 turn out when `O=C(Nc1c[nH]c2ccc(O[C@H]3C[C@H](c4ccc(C(F)(F)F)cc4)C3)cc12)c1ncccc1F` [Compound 231, 3-fluoro-N-{5-[(1R,3R)-3-[4-(trifluoromethyl)phenyl]cyclobutoxy]-1H-indol-3-yl}pyridine-2-carboxamide] was run?
A: The EC50 was 0.04 to 0.2 µM.

Q: For `O=C(Nc1c[nH]c2ccc(O[C@H]3C[C@H](c4ccc(C(F)(F)F)cc4)C3)cc12)c1nccs1` [Compound 232, N-{5-[(1R,3R)-3-[4-(trifluoromethyl)phenyl]cyclobutoxy]-1H-indol-3-yl}-1,3-thiazole-2-carboxamide], which EC50 is on record?
A: The EC50 was 0.04 to 0.2 µM.

Q: With `Cc1oncc1C(=O)Nc1c[nH]c2ccc(O[C@H]3C[C@H](c4ccc(C(F)(F)F)cc4)C3)cc12` [Compound 233, 5-methyl-N-{5-[(1R,3R)-3-[4-(trifluoromethyl)phenyl]cyclobutoxy]-1H-indol-3-yl}-1,2-oxazole-4-carboxamide] as the compound, how does the EC50 read?
A: Its EC50 is 5 to 100 µM.

Q: How did the EC50 turn out when `Cc1noc(C)c1C(=O)Nc1c[nH]c2ccc(O[C@H]3C[C@H](c4ccc(C(F)(F)F)cc4)C3)cc12` [Compound 234, 3,5-dimethyl-N-{5-[(1R,3R)-3-[4-(trifluoromethyl)phenyl]cyclobutoxy]-1H-indol-3-yl}-1,2-oxazole-4-carboxamide] was run?
A: The EC50 was 0.2 to 1 µM.

Q: `O=C(Nc1c[nH]c2ccc(O[C@H]3C[C@H](c4ccc(C(F)(F)F)cc4)C3)cc12)c1cncs1` [Compound 235, N-{5-[(1R,3R)-3-[4-(trifluoromethyl)phenyl]cyclobutoxy]-1H-indol-3-yl}-1,3-thiazole-5-carboxamide] was tested. Which EC50 did it give?
A: Its EC50 is 0.2 to 1 µM.

Q: For `O=C(Nc1c[nH]c2ccc(OCc3ccc(C(F)(F)F)cc3)cc12)C1CC12CCC2` (stereo not shown) [Compound 236, N-(5-{[4-(trifluoromethyl)phenyl]methoxy}-1H-indol-3-yl)spiro[2.3]hexane-1-carboxamide], which EC50 is on record?
A: The EC50 was 0.04 to 0.2 µM.

Q: Which EC50 does the source give for `Cn1nccc1C(=O)Nc1c[nH]c2ccc(O[C@H]3C[C@H](c4ccc(C(F)(F)F)cc4)C3)cc12` [Compound 237, 1-methyl-N-{5-[(1R,3R)-3-[4-(trifluoromethyl)phenyl]cyclobutoxy]-1H-indol-3-yl}-1H-pyrazole-5-carboxamide] here?
A: The EC50 was 0.2 to 1 µM.

Q: How did the EC50 turn out when `CC12CC(C(=O)Nc3c[nH]c4ccc(O[C@H]5C[C@H](c6ccc(C(F)(F)F)cc6)C5)cc34)(C1)C2` [Compound 238, 3-methyl-N-{5-[(1R,3R)-3-[4-(trifluoromethyl)phenyl]cyclobutoxy]-1H-indol-3-yl}bicyclo[1.1.1]pentane-1-carboxamide] was run?
A: The EC50 was 0.04 to 0.2 µM.

Q: How did the EC50 turn out when `O=C(Nc1c[nH]c2ccc(O[C@H]3C[C@H](c4ccc(C(F)(F)F)cc4)C3)cc12)c1cscn1` [Compound 239, N-(5-((1R,3R)-3-(4-(trifluoromethyl)phenyl)cyclobutoxy)-1H-indol-3-yl)thiazole-4-carboxamide] was run?
A: Its EC50 is 0.04 to 0.2 µM.

Q: With `Cn1cc(C(=O)Nc2c[nH]c3ccc(OCc4ccc(C(F)(F)F)cc4)cc23)nn1` [Compound 240, 1-methyl-N-(5-((4-(trifluoromethyl)benzyl)oxy)-1H-indol-3-yl)-1H-1,2,3-triazole-4-carboxamide] as the compound, how does the EC50 read?
A: Its EC50 is 1 to 5 µM.

Q: `Cn1cc(C(=O)Nc2c[nH]c3ccc(O[C@H]4C[C@@H](c5ccc(C(F)(F)F)cc5)C4)cc23)nn1` [Compound 241] was tested. Which EC50 did it give?
A: Its EC50 is 0.2 to 1 µM.

Q: `Cn1cc(C(=O)Nc2c[nH]c3ccc(OCC[C@@H]4C[C@@H]5CN(CC(F)(F)F)C[C@@H]5C4)cc23)nn1` [Compound 242, N-(5-{2-[(3aR,5R,6aS)-2-(2,2,2-trifluoroethyl)octahydrocyclopenta[c]pyrrol-5-yl]ethoxy}-1H-indol-3-yl)-1-methyl-1H-1,2,3-triazole-4-carboxamide] was tested. Which EC50 did it give?
A: Its EC50 is 0.2 to 1 µM.

Q: With `Cn1cc(C(=O)Nc2c[nH]c3ccc(CCOc4ccc(C(F)(F)F)cc4)cc23)nn1` [Compound 243, 1-methyl-N-(5-(2-(4-(trifluoromethyl)phenoxy)ethyl)-1H-indol-3-yl)-1H-1,2,3-triazole-4-carboxamide] as the compound, how does the EC50 read?
A: Its EC50 is 0.2 to 1 µM.

Q: How did the EC50 turn out when `Cn1cc(C(=O)Nc2c[nH]c3ccc(OCCc4ccc(C(F)(F)F)cc4)cc23)nn1` [Compound 244, 1-methyl-N-(5-(4-(trifluoromethyl)phenethoxy)-1H-indol-3-yl)-1H-1,2,3-triazole-4-carboxamide] was run?
A: The EC50 was 0.04 to 0.2 µM.

Q: For `O=C(Nc1c[nH]c2ccc(OCCc3ccc(C(F)(F)F)cc3)cc12)c1cn(-c2cnc(N3CCC(F)(F)CC3)c(F)c2)nn1` [Compound 245, 1-(6-(4,4-difluoropiperidin-1-yl)-5-fluoropyridin-3-yl)-N-(5-(4-(trifluoromethyl)phenethoxy)-1H-indol-3-yl)-1H-1,2,3-triazole-4-carboxamide], which EC50 is on record?
A: Its EC50 is 0.2 to 1 µM.

Q: Which EC50 does the source give for `O=C(Nc1c[nH]c2ccc(Oc3ccccc3)cc12)c1cnn(Cc2ccc(C(F)(F)F)cc2)c1` [Compound 246, N-(5-phenoxy-1H-indol-3-yl)-1-(4-(trifluoromethyl)benzyl)-1H-pyrazole-4-carboxamide] here?
A: The EC50 was 0.04 to 0.2 µM.
